For 43 molecules, IC50 results are on record in patent US7265130B2, “NPY Y5 antagonist” (Shionogi & Co., Ltd., priority 1999, dated 2007).

Molecules are shown by their SMILES.

The target of assay [1] is T1, human NPY Y5 receptor (Homo sapiens, UniProt Q15761).
T1 construct: expressed in transfected cells
T1 sequence (Q15761 1-445): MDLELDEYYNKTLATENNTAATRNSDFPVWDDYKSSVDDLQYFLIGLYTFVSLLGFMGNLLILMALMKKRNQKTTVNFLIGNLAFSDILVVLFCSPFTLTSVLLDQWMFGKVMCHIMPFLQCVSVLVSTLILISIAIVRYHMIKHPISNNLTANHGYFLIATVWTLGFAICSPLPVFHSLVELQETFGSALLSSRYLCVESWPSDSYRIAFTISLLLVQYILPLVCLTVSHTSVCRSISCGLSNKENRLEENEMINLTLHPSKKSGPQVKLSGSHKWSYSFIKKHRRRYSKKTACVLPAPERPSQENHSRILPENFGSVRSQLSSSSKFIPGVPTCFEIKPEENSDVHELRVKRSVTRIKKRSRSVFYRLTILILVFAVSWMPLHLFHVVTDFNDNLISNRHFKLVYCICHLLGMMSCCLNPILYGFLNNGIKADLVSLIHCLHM
The experiment in a line: Affinity for NPY Y5 receptor ([125I] peptide YY binding, CHO cell membranes). Particulars: inhibition of specific [125I] peptide YY binding, membranes of CHO cells expressing NPY Y5 receptor. In outline: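 IC50 is inhibition of specific [125I] peptide YY binding (60 pM final; non-specific defined by 200 nM peptide YY), read by gamma counting after filtration. Binding used stably transfected CHO-cell membranes with compound, 2 hours at 25° C, pH 7.4 HEPES-Hanks/0.1% BSA.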

Assay [2] concerns the target T1, human NPY Y5 receptor. The experiment in a line: cAMP production inhibitory activity in CHO cells. It counts as cell-based. Particulars: against 50 nM NPY inhibition of forskolin stimulated cAMP, CHO cells expressing human NPY Y5 receptor. The method, boiled down:
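Supernatant cAMP quantified by EIA after HCl stop, following 30 min stimulation with 10 μM forskolin and 50 nM NPY. Compound was added 5 min before stimulation to human NPY Y5-expressing CHO cells pretreated 20 min at 37 °C with 2.5 mM isobutylmethylxanthine.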

Turning to `CC(C)(C)S(=O)(=O)NC1CCC(C(=O)Nc2ccc(N3CCC(O)(c4ccc(Cl)cc4)CC3)cc2)CC1` (centres unmarked) [Ia-65], the figures for the IC50 on human NPY Y5 receptor [1] and at human NPY Y5 receptor [2] were 1.1 nM and 11 nM, respectively.

For `CC(C)(C)S(=O)(=O)NC1CCC(C(=O)Nc2nnc(-c3ccccc3)s2)CC1` (centres unmarked) [Ia-66], the IC50 at human NPY Y5 receptor [1] worked out at 0.59 nM; on human NPY Y5 receptor [2], 3.2 nM.

Consider `CC(C)(C)S(=O)(=O)NC1CCN(C(=O)Nc2ccc3oc(=O)ccc3c2)CC1` [Ia-68], for which the figures for the IC50 on human NPY Y5 receptor [1] and against human NPY Y5 receptor [2] were 9.5 nM and 180 nM, respectively.

Consider `Cn1nnnc1-c1ccc(NC(=O)[C@H]2CC[C@H](NS(=O)(=O)C(C)(C)C)CC2)cc1` [Ia-69], for which the values for the IC50 on human NPY Y5 receptor [1] and against human NPY Y5 receptor [2] were 2.7 nM and 33 nM, respectively.

Regarding `CC(C)(C)S(=O)(=O)NC1CCN(C(=O)Nc2cnc(-c3ccccc3)cn2)CC1` [Ia-70], the IC50 is 1.5 nM at human NPY Y5 receptor [1] and 31 nM against human NPY Y5 receptor [2].

On to `CC(C)(C)S(=O)(=O)N[C@H]1CC[C@H](C(=O)Nc2ccc(-c3nnnn3-c3ccccc3)cc2)CC1` [Ia-71], for which the IC50 at human NPY Y5 receptor [1] was 1.3 nM; on human NPY Y5 receptor [2] it was 12 nM.

For `CC(C)(C)S(=O)(=O)NCCCCC(=O)Nc1ccc2oc(=O)ccc2c1` [Ia-78], the IC50 on human NPY Y5 receptor [1] was 2 nM; against human NPY Y5 receptor [2] it was 150 nM.

Regarding `CC(C)S(=O)(=O)N[C@H]1CC[C@H](C(=O)Nc2ccc3c(c2)C(=O)N(c2ccccc2)C3=O)CC1` [Ia-80], the results for the IC50 at human NPY Y5 receptor [1] and against human NPY Y5 receptor [2] were 0.44 nM and 3 nM, respectively.

In the case of `CC(C)(C)S(=O)(=O)NCCCCC(=O)Nc1ccc2c(c1)C(=O)N(c1ccccc1)C2=O` [Ia-81], the figures for the IC50 on human NPY Y5 receptor [1] and against human NPY Y5 receptor [2] were 2.7 nM and 4.5 nM, respectively.

`C[C@@H]1CN(c2ccc(NC(=O)CCCCNS(=O)(=O)C(C)(C)C)c(F)c2)C[C@H](C)O1` [Ia-83]: the IC50 worked out at 1.2 nM at human NPY Y5 receptor [1] and 53 nM against human NPY Y5 receptor [2].

`CC(C)S(=O)(=O)NC1CCC(C(=O)Nc2ccc(N3CCC(O)(c4ccc(Cl)cc4)CC3)cc2)CC1` (centres unmarked) [Ia-84]: the IC50 on human NPY Y5 receptor [1] turned out to be 0.25 nM; on human NPY Y5 receptor [2], 13 nM.

For the molecule `CC(C)(C)S(=O)(=O)NCCCCC(=O)Nc1ccc(N2CCC(O)(c3ccc(Cl)cc3)CC2)cc1` [Ia-85], the IC50 was found to be 0.22 nM on human NPY Y5 receptor [1] and 14 nM on human NPY Y5 receptor [2].

In the case of `CC(C)S(=O)(=O)NCCCCC(=O)Nc1ccc(N2CCC(O)(c3ccc(Cl)cc3)CC2)cc1` [Ia-86], the IC50 worked out at 0.73 nM on human NPY Y5 receptor [1] and 11 nM on human NPY Y5 receptor [2].

Turning to `CC(C)S(=O)(=O)NC1CCC(C(=O)Nc2ccc3c(c2)C(=O)N(C)C3=O)CC1` (centres unmarked) [Ia-87], the IC50 was determined as 0.49 nM at human NPY Y5 receptor [1] and 61 nM on human NPY Y5 receptor [2].

In the case of `CC(C)S(=O)(=O)NC1CCC(C(=O)Nc2ccc3c(c2)OCO3)CC1` (centres unmarked) [Ia-88], the IC50 at human NPY Y5 receptor [1] stood at 0.62 nM; against human NPY Y5 receptor [2] it was 48 nM.

As for `CN1C(=O)c2ccc(NC(=O)CCCCNS(=O)(=O)C(C)(C)C)cc2C1=O` [Ia-91], the IC50 on human NPY Y5 receptor [1] is 4 nM; at human NPY Y5 receptor [2] it was 150 nM.

With `CC(C)(C)S(=O)(=O)NC1CCC(C(=O)Nc2ccc3scnc3c2)CC1` (centres unmarked) [Ia-106], the values for the IC50 at human NPY Y5 receptor [1] and against human NPY Y5 receptor [2] were 1.9 nM and 24 nM, respectively.

With `CC(C)(C)S(=O)(=O)NC1CCC(C(=O)Nc2ccc(-c3ccccc3)cc2)CC1` (centres unmarked) [Ia-107], the IC50 worked out at 0.14 nM on human NPY Y5 receptor [1] and 1.3 nM against human NPY Y5 receptor [2].

In the case of `CC(C)(C)S(=O)(=O)NC1CCC(C(=O)Nc2cccc3c2Cc2ccccc2-3)CC1` (centres unmarked) [Ia-109], the IC50 at human NPY Y5 receptor [1] is 0.6 nM; at human NPY Y5 receptor [2], 3.9 nM.

As to `CC(C)(C)S(=O)(=O)NC1CCC(C(=O)Nc2ccc(N3CC=CC3)cc2)CC1` (centres unmarked) [Ia-110], the IC50 on human NPY Y5 receptor [1] is 0.3 nM; against human NPY Y5 receptor [2] it was 1.1 nM.

For the molecule `CC(C)(C)S(=O)(=O)NC1CCC(C(=O)Nc2cccc3c2CCCC3)CC1` (centres unmarked) [Ia-111], the values for the IC50 at human NPY Y5 receptor [1] and against human NPY Y5 receptor [2] were 5.1 nM and 28 nM, respectively.

On to `CC(C)(C)S(=O)(=O)Nc1ccc(C(=O)Nc2ccc3c(c2)CCC3)cc1` [Ia-125], for which the values for the IC50 on human NPY Y5 receptor [1] and at human NPY Y5 receptor [2] were 4.1 nM and 46 nM, respectively.

Consider `CC(C)(C)S(=O)(=O)Nc1ccc(C(=O)Nc2ccc3c(c2)OCCO3)cc1` [Ia-127], for which the values for the IC50 at human NPY Y5 receptor [1] and at human NPY Y5 receptor [2] were 6.1 nM and 160 nM, respectively.

On to `CC(C)(C)S(=O)(=O)NC1CCC(C(=O)Nc2cccc(C(F)(F)F)c2)CC1` (centres unmarked) [Ia-129], for which the values for the IC50 on human NPY Y5 receptor [1] and against human NPY Y5 receptor [2] were 1.3 nM and 26 nM, respectively.

`CC(C)(C)S(=O)(=O)NC1CCC(C(=O)Nc2ccc3ccsc3c2)CC1` (centres unmarked) [Ia-130]: the IC50 is 0.21 nM at human NPY Y5 receptor [1] and 3 nM on human NPY Y5 receptor [2].

Turning to `CC(C)(C)S(=O)(=O)Nc1ccc(C(=O)Nc2ccc3ccsc3c2)cc1` [Ia-131], the values for the half-inhibitory concentration (IC50) on human NPY Y5 receptor [1] and on human NPY Y5 receptor [2] were 1.3 nM and 17 nM, respectively.

For the molecule `CC(C)NC(=O)c1cccc(NC(=O)c2ccc(NS(=O)(=O)C(C)(C)C)cc2)c1` [Ia-132], the IC50 stood at 2.8 nM at human NPY Y5 receptor [1] and 76 nM against human NPY Y5 receptor [2].

Turning to `CC(C)(C)S(=O)(=O)Nc1ccc(C(=O)Nc2ccc3sccc3c2)cc1` [Ia-133], the IC50 on human NPY Y5 receptor [1] was found to be 1.7 nM; against human NPY Y5 receptor [2], 8.8 nM.

On to `CC(C)(C)S(=O)(=O)NC1CCC(C(=O)Nc2ccc(F)cc2F)CC1` (centres unmarked) [Ia-135], for which the IC50 on human NPY Y5 receptor [1] was determined as 8.2 nM; at human NPY Y5 receptor [2], 49 nM.

As to `CC(C)(C)S(=O)(=O)NC1CCC(C(=O)Nc2cc(F)cc(F)c2)CC1` (centres unmarked) [Ia-136], the results for the IC50 on human NPY Y5 receptor [1] and against human NPY Y5 receptor [2] were 1.6 nM and 13 nM, respectively.

Turning to `CC(C)(C)S(=O)(=O)NC1CCC(C(=O)Nc2ccc(F)c(F)c2)CC1` (centres unmarked) [Ia-138], the IC50 at human NPY Y5 receptor [1] was determined as 2.2 nM; on human NPY Y5 receptor [2], 28 nM.

Regarding `CC(C)S(=O)(=O)NC1CCC(C(=O)Nc2ccc3c(c2)CCC3)CC1` (centres unmarked) [Ia-141], the results for the IC50 on human NPY Y5 receptor [1] and at human NPY Y5 receptor [2] were 1 nM and 5.7 nM, respectively.

Regarding `CC(C)(C)S(=O)(=O)Nc1ccc(C(=O)Nc2ccc(-c3ccccc3)cc2)cc1` [Ia-158], the IC50 at human NPY Y5 receptor [1] was found to be 0.71 nM; against human NPY Y5 receptor [2], 1.7 nM.

Consider `CC(C)(C)S(=O)(=O)NC1CCC(C(=O)Nc2ccc(F)c(C(F)(F)F)c2)CC1` (centres unmarked) [Ia-160], for which the IC50 on human NPY Y5 receptor [1] came out at 0.76 nM; at human NPY Y5 receptor [2], 140 nM.

Turning to `Cc1ccc(NC(=O)C2CCC(NS(=O)(=O)C(C)(C)C)CC2)cc1F` (centres unmarked) [Ia-161], the figures for the IC50 on human NPY Y5 receptor [1] and at human NPY Y5 receptor [2] were 1.9 nM and 18 nM, respectively.

For the molecule `CC(C)S(=O)(=O)Nc1ccc(C(=O)Nc2ccc3c(c2)CCC3)cc1` [Ia-163], the values for the IC50 at human NPY Y5 receptor [1] and against human NPY Y5 receptor [2] were 7 nM and 400 nM, respectively.

With `CC(C)(C)S(=O)(=O)NC1CCC(C(=O)Nc2ccc(OC3CCCC3)cc2)CC1` (centres unmarked) [Ia-164], the IC50 was determined as 0.38 nM at human NPY Y5 receptor [1] and 4.7 nM against human NPY Y5 receptor [2].

For the molecule `CC(C)(C)S(=O)(=O)NC1CCC(C(=O)Nc2cccc(S(=O)(=O)NC3CCCCC3)c2)CC1` (centres unmarked) [Ia-168], the IC50 came out at 0.95 nM on human NPY Y5 receptor [1] and 13 nM on human NPY Y5 receptor [2].

For `CC(C)(C)S(=O)(=O)NC1CCC(C(=O)Nc2ccc(S(=O)(=O)NC3CCCCC3)cc2)CC1` (centres unmarked) [Ia-169], the IC50 was 1.9 nM on human NPY Y5 receptor [1] and 88 nM against human NPY Y5 receptor [2].

For `CC(C)(C)S(=O)(=O)NC1CCC(C(=O)Nc2ccc(N3CCCCC3=O)cc2)CC1` (centres unmarked) [Ia-173], the values for the IC50 on human NPY Y5 receptor [1] and against human NPY Y5 receptor [2] were 6.9 nM and 140 nM, respectively.

Take `CC(C)(C)S(=O)(=O)NC1CCC(C(=O)Nc2ccc(OCC3CC3)cc2)CC1` (centres unmarked) [Ia-174]: the IC50 at human NPY Y5 receptor [1] was determined as 0.35 nM; at human NPY Y5 receptor [2], 5.4 nM.

Turning to `CC(C)(C)S(=O)(=O)NC1CCC(C(=O)Nc2ccc(OC3CCCCC3)cc2)CC1` (centres unmarked) [Ia-175], the IC50 on human NPY Y5 receptor [1] came to 0.49 nM; against human NPY Y5 receptor [2] it was 9.2 nM.

Take `CC(C)(C)S(=O)(=O)NC1CCC(C(=O)Nc2cccc(OC3CCCCC3)c2)CC1` (centres unmarked) [Ia-176]: the results for the IC50 on human NPY Y5 receptor [1] and on human NPY Y5 receptor [2] were 0.63 nM and 5.1 nM, respectively.
